Test results: ChEMBL document CHEMBL5653631, “A Potent and Selective ULK1 Inhibitor Suppresses Autophagy and Sensitizes Cancer Cells to Nutrient Stress” (iScience, 2018)

Experiments:
[1] = biological target: SRSF protein kinase 3 (Homo sapiens) (UniProt Q9UPE1); assay: Inhibition of human recombinant MSSK1 at 40 nM related to control ULK1
Homo sapiens = organism: Homo sapiens; assay: Inhibition of human recombinant CK1d at 40 nM related to control ULK1
[2] = biological target: T1, Ephrin type-B receptor 4 (Homo sapiens) (UniProt P54760); assay: Inhibition of human recombinant EphB4 at 500 nM related to control ULK1
T1 sequence (whole entry): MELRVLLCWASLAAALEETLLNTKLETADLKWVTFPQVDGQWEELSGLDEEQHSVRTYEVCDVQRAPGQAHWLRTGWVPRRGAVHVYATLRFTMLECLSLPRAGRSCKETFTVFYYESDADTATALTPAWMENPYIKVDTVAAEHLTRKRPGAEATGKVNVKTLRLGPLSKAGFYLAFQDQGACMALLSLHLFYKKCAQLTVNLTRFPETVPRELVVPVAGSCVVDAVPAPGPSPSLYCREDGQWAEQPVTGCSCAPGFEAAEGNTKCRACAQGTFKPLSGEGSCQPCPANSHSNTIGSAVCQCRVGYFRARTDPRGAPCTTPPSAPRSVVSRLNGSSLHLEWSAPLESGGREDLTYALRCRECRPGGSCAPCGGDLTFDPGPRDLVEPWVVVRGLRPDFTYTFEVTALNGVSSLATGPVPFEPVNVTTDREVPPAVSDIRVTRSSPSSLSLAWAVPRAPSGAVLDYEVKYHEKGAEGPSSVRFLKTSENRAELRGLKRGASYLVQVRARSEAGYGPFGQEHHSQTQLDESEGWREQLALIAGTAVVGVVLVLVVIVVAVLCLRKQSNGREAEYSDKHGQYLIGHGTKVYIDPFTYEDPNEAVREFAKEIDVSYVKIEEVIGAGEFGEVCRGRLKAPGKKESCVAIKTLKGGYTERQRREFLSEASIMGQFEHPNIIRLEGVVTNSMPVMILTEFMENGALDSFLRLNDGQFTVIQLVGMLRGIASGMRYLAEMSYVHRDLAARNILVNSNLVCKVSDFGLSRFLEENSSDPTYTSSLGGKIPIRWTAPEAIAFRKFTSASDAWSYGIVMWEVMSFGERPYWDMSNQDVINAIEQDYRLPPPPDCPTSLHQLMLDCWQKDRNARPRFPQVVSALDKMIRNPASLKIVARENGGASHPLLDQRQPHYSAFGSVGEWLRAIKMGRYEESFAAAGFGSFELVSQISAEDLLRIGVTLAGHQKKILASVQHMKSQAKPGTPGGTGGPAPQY

[3] = biological target: T2, Discoidin domain-containing receptor 2 (Homo sapiens) (UniProt Q16832); assay: Inhibition of human recombinant DDR2 at 500 nM related to control ULK1
T2 sequence (whole entry): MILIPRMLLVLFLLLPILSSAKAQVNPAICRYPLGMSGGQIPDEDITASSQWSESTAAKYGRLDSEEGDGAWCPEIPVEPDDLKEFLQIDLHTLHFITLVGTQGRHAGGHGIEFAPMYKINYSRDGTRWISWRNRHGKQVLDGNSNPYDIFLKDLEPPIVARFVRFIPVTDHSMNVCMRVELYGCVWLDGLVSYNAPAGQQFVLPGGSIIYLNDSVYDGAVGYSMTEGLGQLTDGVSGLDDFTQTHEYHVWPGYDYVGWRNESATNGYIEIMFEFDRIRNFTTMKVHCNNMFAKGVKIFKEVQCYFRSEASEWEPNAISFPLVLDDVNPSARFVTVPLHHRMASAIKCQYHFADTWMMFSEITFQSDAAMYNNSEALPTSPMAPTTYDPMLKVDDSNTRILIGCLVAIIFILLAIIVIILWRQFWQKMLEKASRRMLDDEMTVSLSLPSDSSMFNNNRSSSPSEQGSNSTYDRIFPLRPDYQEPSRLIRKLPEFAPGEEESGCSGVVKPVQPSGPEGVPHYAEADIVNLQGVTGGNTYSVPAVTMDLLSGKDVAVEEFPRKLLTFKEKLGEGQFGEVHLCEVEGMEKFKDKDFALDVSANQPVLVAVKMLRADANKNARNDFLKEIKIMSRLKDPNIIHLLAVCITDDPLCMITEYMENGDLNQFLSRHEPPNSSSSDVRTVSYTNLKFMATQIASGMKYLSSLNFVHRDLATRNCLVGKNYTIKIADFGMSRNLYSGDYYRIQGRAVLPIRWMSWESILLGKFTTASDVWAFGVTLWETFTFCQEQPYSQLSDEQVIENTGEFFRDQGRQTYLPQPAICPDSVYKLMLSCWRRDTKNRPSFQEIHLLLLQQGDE

[4] = biological target: T3, MAPK/MAK/MRK overlapping kinase (Homo sapiens) (UniProt Q9UQ07); assay: Inhibition of human recombinant MOK at 500 nM in presence of ATP by radiometric assay relative to control
T3 sequence (whole entry): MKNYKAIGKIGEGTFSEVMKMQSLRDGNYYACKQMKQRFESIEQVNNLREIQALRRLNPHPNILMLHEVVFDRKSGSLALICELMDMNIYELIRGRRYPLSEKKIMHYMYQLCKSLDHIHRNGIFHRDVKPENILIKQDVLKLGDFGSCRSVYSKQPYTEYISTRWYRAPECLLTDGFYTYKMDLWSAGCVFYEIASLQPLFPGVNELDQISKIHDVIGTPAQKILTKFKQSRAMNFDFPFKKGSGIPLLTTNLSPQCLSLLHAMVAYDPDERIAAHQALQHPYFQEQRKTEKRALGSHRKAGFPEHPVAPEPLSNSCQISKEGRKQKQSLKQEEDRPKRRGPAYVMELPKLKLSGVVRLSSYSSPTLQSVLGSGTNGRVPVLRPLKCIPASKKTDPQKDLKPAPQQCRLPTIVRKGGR

[5] = biological target: Calcium/calmodulin-dependent protein kinase type II subunit alpha (Homo sapiens) (UniProt Q9UQM7); assay: Inhibition of human recombinant CaMK2a at 15 nM in presence of ATP by radiometric assay relative to control
Chain of Calcium/calmodulin-dependent protein kinase type II subunit alpha (Homo sapiens) (Q9UQM7 whole entry): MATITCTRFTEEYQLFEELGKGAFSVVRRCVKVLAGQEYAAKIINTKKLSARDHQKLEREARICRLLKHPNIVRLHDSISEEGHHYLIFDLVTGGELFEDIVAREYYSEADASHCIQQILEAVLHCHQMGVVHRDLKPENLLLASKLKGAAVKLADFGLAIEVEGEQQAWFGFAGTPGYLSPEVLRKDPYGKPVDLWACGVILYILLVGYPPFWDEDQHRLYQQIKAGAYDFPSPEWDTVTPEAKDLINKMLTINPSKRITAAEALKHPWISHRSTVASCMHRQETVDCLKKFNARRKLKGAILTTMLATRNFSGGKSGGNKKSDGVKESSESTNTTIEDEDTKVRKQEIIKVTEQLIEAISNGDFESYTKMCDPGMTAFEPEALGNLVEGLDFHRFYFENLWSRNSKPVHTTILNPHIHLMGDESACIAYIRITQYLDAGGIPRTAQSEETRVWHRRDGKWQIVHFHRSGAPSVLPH

[6] = biological target: cAMP-dependent protein kinase catalytic subunit alpha (Homo sapiens) (UniProt P17612); assay: Inhibition of human recombinant PKACalpha at 15 nM related to control ULK1
[7] = biological target: Ribosomal protein S6 kinase alpha-2 (Homo sapiens) (UniProt Q15349); assay: Inhibition of human recombinant RSK3 at 15 nM related to control ULK1
Chain of Ribosomal protein S6 kinase alpha-2 (Homo sapiens) (Q15349 whole entry): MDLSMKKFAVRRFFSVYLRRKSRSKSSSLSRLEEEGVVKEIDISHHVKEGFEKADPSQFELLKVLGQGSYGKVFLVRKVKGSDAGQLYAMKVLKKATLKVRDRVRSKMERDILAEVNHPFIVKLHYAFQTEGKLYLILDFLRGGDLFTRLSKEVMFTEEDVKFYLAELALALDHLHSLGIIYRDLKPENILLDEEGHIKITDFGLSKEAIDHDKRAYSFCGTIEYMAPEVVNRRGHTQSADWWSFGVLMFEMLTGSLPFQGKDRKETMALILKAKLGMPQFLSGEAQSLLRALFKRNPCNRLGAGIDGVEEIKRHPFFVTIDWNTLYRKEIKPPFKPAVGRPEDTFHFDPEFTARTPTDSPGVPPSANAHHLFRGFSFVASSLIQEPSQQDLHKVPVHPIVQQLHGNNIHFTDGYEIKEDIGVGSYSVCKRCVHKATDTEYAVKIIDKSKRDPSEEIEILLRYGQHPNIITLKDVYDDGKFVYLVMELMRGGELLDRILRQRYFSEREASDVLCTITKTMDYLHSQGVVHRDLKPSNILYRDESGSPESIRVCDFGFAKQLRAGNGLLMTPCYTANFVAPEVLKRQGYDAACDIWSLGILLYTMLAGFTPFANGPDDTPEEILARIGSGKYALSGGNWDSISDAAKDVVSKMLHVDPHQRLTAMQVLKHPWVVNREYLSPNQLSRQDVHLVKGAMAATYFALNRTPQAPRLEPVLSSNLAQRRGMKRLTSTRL

[8] = biological target: Insulin receptor (Homo sapiens) (UniProt P06213); assay: Inhibition of human recombinant INSR at 15 nM in presence of ATP by radiometric assay relative to control
Chain of Insulin receptor (Homo sapiens) (P06213 28-758 limits assumed): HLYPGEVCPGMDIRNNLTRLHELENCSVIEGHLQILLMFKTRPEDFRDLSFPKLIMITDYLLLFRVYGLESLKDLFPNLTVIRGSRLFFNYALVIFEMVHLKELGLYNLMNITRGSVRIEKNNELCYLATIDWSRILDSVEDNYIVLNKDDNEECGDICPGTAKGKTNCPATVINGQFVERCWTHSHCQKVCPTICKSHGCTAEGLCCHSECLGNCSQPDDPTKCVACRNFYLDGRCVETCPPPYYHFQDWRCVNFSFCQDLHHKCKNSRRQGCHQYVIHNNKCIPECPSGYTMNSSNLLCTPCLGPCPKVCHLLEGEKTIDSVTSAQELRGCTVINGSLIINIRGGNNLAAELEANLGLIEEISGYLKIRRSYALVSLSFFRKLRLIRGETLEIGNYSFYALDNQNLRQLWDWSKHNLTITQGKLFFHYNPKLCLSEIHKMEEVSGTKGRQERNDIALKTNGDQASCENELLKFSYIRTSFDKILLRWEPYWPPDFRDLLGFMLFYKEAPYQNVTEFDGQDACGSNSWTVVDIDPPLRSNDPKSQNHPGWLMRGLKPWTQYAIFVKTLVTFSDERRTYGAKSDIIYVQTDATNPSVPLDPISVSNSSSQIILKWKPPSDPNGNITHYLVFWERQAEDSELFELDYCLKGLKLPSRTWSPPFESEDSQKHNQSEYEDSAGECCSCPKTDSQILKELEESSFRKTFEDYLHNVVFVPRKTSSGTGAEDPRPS
Chain of Insulin receptor (Homo sapiens) (P06213 763-1382 limits assumed): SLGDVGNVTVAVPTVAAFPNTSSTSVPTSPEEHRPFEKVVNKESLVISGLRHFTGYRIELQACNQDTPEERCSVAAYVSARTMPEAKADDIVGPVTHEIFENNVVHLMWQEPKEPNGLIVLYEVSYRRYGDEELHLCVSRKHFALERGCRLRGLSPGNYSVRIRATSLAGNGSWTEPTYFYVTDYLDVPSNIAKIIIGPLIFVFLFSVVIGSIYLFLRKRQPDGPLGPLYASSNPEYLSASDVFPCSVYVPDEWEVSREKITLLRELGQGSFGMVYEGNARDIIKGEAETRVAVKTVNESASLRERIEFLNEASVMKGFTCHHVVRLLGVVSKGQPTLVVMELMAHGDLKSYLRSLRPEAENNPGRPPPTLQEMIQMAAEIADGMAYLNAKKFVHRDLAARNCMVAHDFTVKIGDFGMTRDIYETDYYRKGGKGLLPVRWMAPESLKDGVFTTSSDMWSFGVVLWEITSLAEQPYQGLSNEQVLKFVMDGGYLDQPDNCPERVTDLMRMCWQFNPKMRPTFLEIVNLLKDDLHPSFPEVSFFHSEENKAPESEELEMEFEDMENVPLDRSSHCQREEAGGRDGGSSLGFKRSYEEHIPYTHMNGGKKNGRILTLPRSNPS

Chain of SRSF protein kinase 3 (Homo sapiens) (Q9UPE1 whole entry): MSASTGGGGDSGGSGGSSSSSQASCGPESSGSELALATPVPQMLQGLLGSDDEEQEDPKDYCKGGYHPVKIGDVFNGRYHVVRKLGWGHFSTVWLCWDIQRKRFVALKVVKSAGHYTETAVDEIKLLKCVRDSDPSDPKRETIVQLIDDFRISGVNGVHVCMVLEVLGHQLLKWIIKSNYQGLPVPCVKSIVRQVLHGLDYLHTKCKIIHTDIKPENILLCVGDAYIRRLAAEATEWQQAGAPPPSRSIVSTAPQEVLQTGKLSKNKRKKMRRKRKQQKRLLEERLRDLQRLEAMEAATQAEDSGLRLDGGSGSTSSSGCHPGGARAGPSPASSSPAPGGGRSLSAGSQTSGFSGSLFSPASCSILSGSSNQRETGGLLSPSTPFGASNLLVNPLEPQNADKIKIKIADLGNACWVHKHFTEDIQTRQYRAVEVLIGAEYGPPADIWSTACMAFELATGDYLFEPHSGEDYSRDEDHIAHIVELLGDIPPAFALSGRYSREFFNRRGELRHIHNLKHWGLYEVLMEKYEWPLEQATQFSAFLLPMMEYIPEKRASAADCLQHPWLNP

Compound O=C(N[C@@H](C1CC1)C(F)(F)F)c1cc(-c2cnn3cc(-c4ccc(F)cc4)cnc23)cs1 has a fold change (FC) [1] of 0.18 and a fold change (FC) (Homo sapiens) of 0.04.
In the case of CNC(=O)c1ccccc1Oc1nc(Nc2cc(OC)c(OC)c(OC)c2)ncc1Br, the fold change (FC) [2] is reported as 0, the fold change (FC) [3] is reported as 0 and the inhibition [4] is reported as 2%.
CC(C)[C@H](NC(=O)c1cc(-c2cnn3cc(-c4ccc(OCCN5CCCCC5)cc4)cnc23)cs1)C(F)(F)F showed an inhibition [5] of 41%, a fold change (FC) [6] of 0 and a fold change (FC) [7] of 0.03. For the same compound, the inhibition [8] was 0%.
